# Reference: the supplement of paper PMC10307832
# What was measured:
# Experiment in all cases: relative viability (nuclei count vs DMSO), 5 days (fraction); higher = more cells survive
# TGX 221 + Linsitinib = compound: CC1=CN2C(=O)C=C(N=C2C(=C1)C(C)NC3=CC=CC=C3)N4CCOCC4 [TGX 221] + C[C@]1(O)C[C@@H](c2nc(-c3ccc4ccc(-c5ccccc5)nc4c3)c3c(N)nccn32)C1 [Linsitinib] (partner 1 µM)
# Outline: (§1)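 Lung cancer cell lines in 1536-well plates were dosed by pin tool the day after seeding, either with one drug alone or with a fixed anchor-drug dose plus five library-drug doses (not always all listed) in √10 steps. After 5 days, cells were fixed and their nuclei stained in one step (final 0.05% Triton X-100, 1% formaldehyde, 1 ug/ml Hoechst), then counted on 4× images. Relative viability is the nuclei count in treated wells divided by that in vehicle wells. Values are medians of duplicate plates.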
# [1] = compound: C1=CC=C(C(=C1)C2=CC=C(C=C2)C3=CSC4=C3C(=C(C(=O)N4)C#N)O)O + CC1(C)CCC(c2ccc(Cl)cc2)=C(CN2CCN(c3ccc(C(=O)NS(=O)(=O)c4ccc(N[C@H](CCN5CCOCC5)CSc5ccccc5)c(S(=O)(=O)C(F)(F)F)c4)cc3)CC2)C1 [Navitoclax] (partner 0.5 µM)
# Outline: as §1
# TGX 221 + Bortezomib = compound: CC1=CN2C(=O)C=C(N=C2C(=C1)C(C)NC3=CC=CC=C3)N4CCOCC4 [TGX 221] + CC(C)C[C@H](NC(=O)[C@H](Cc1ccccc1)NC(=O)c1cnccn1)B(O)O [Bortezomib] (partner 0.002 µM)
# Outline: as §1
# [2] = compound: C1=CC=C(C(=C1)C2=CC=C(C=C2)C3=CSC4=C3C(=C(C(=O)N4)C#N)O)O + CS(=O)(=O)CCNCc1ccc(-c2ccc3ncnc(Nc4ccc(OCc5cccc(F)c5)c(Cl)c4)c3c2)o1 [Lapatinib] (partner 2 µM)
# Outline: as §1
Cell Line,relative viability (TGX 221 + Linsitinib; first compound 0.08 µM),relative viability (TGX 221 + Linsitinib; first compound 0.253 µM),relative viability (TGX 221 + Linsitinib; first compound 0.8 µM),relative viability (TGX 221 + Linsitinib; first compound 2.53 µM),relative viability (TGX 221 + Linsitinib; first compound 8 µM),relative viability ([1]; first compound 0.08 µM),relative viability ([1]; first compound 0.253 µM),relative viability ([1]; first compound 0.8 µM),relative viability ([1]; first compound 2.53 µM),relative viability ([1]; first compound 8 µM),relative viability (TGX 221 + Bortezomib; first compound 0.08 µM),relative viability (TGX 221 + Bortezomib; first compound 0.253 µM),relative viability (TGX 221 + Bortezomib; first compound 0.8 µM),relative viability (TGX 221 + Bortezomib; first compound 2.53 µM),relative viability (TGX 221 + Bortezomib; first compound 8 µM),relative viability ([2]; first compound 0.08 µM),relative viability ([2]; first compound 0.253 µM),relative viability ([2]; first compound 0.8 µM),relative viability ([2]; first compound 2.53 µM),relative viability ([2]; first compound 8 µM)
A-427,1.05,1.02,1.1,1.12,1.02,0.999,0.951,1.01,0.957,1.02,0.954,0.99,0.965,0.942,0.993,0.917,1.06,1.2,1.03,1.2
NCI-H1975,0.843,0.778,0.902,0.943,0.697,0.958,1.25,1.15,1.22,0.731,0.459,0.351,0.384,0.39,0.305,0.756,1.01,0.832,0.895,0.766
HCC-827,0.999,1.05,0.94,0.986,0.886,1,1.12,1.04,1.04,1.04,0.981,1.06,1.07,1.17,1.07,0.185,0.201,0.197,0.184,0.18
UMC-11,0.966,0.979,1.13,0.987,1.04,0.321,0.301,0.321,0.314,0.318,0.873,0.772,0.823,0.745,0.796,0.745,0.871,0.941,1,0.858
NCI-H3122,1.01,1.05,1,1.02,0.986,1.01,1.11,1,1.01,1.07,1.02,1.04,0.969,0.941,1.02,1.05,1.17,1.06,1.06,1.02
LXF-289,0.956,0.965,0.98,0.931,1,0.951,0.968,0.996,0.994,0.967,1.02,0.979,0.915,0.974,1.06,0.89,0.895,0.917,0.908,0.924
NCI-H647,0.915,0.948,1,0.749,0.611,0.877,1.16,1.24,1.21,0.741,0.929,0.66,0.926,0.676,0.616,0.447,1.2,1.11,1.16,0.871
COR-L23,0.883,0.847,0.964,0.732,0.881,1.09,0.983,1.21,1.06,0.762,0.876,0.964,0.928,1.06,1.01,0.772,1.22,0.834,1.11,0.712
BEN,0.869,0.839,0.878,0.823,0.774,0.0583,0.07,0.0922,0.0562,0.063,0.773,0.694,0.528,0.756,0.915,0.577,0.663,0.716,0.87,0.645
LC-2-ad,0.786,–,0.731,0.668,0.595,0.464,0.382,0.687,0.421,0.361,0.978,–,1.07,1.05,0.928,0.781,1.01,0.903,1.1,1.11
NCI-H650,0.732,0.885,0.779,0.772,0.713,–,–,–,–,–,0.697,0.748,0.721,0.639,0.791,0.625,1.09,0.742,1.09,0.763
NCI-H1563,1.2,1.2,0.909,0.868,0.755,–,–,–,–,–,0.925,0.783,0.795,0.719,0.687,0.715,0.868,1.01,0.881,0.989
NCI-H1793,0.768,0.616,0.531,0.467,0.474,0.406,0.753,0.41,0.443,0.359,–,–,–,–,–,0.583,0.765,0.825,0.701,0.598
HCC-78,0.464,0.409,–,0.213,0.215,0.826,1.02,0.754,0.943,0.708,0.435,0.38,0.429,0.24,0.335,0.575,0.935,0.899,0.781,0.809
LCLC-97TM1,0.145,0.187,0.199,0.167,0.188,0.379,0.719,0.514,0.393,0.453,0.586,0.421,0.504,0.736,0.405,1.01,1.6,1.05,0.68,0.92
NCI-H2009,1.22,1.13,1.03,0.994,0.809,1.06,1.08,1.21,1.17,1.09,0.995,1.02,1.02,0.948,0.769,1.04,0.933,0.795,0.886,0.724
